Values joined by “and” are separate entries in the source; they are usually repeats but may differ in a detail not shown here. Equal entries are not always repeated. “Also recorded” adds a separate entry of the source. Where two headings read alike, the source gives them in different places. Ends that are not written are not given here.
Tests used:
[1] = set-up: method as in PMID 22963731, PMID 23444784, PMID 33551991, PMID 17720549, PMID 15728733; conditions: therapeutic peptides delivered to the brain via the intranasal route; cited from earlier work
[2] = Chemical stability of aqueous solution upon storage (LC–MS); type: physicochemical; conditions: 1 mM in pure water, stored 18 months at 4 °C, 20 °C and 45 °C
Procedure: AmyP53 samples (1 mM in water) were stored at 4 °C, 20 °C, and 45 °C in sealed Eppendorf tubes and analyzed at different time points for chemical integrity (LC-MS method) and biological activity (binding to ganglioside GM1). For calibration, different dilutions of the standard solution were injected three times, and the peak area was measured for all three. […] The percentage of recovery was >98%, in full agreement with the certificate analysis of AmyP53 batch # #P190628-LL735654. LC–MS linearity was observed over the 5–100 pmol injected range (R^2 > 0.99). The minimal amount detected was 5 pmol.

[3] = In vitro stability in rat whole blood (LC–MS); type: in vitro ADME
Procedure: (§1) Supernatants were stored at −20 °C before analysis.
(§2) AmyP53 in water solution (300 µM) was mixed with rat blood (obtained from Syncrosome, Marseille, France), or commercial human serum (Sigma-Aldrich, St. Louis, MO, USA). AmyP53 concentrations were then determined by LC–MS at the indicated times after extraction, as detailed above.

[4] = In vitro stability in commercial human serum (LC–MS); type: in vitro ADME
Procedure: as §1, §2

[5] = system: bEnd.3 murine endothelial cells (bEnd.3/C6 co-cultures); test: Transport through in vitro reconstituted blood–brain barrier (two-compartment chamber); type: in vitro ADME, mouse; conditions: for Transendothelial transport through the blood–brain barrier: bEnd.3/C6 model, donor basal to acceptor apical compartment
Procedure: An in vitro model of the blood–brain barrier was reconstituted with bEnd.3 murine endothelial cells obtained from the American Type Culture Collection (ATCC, Manassas, VA, USA) ref. bEnd.3 [BEND3] (ATCC CRL-2299). These cells were cultured in chambers with two compartments separated by a filter with a porosity of 0.4 µm (Corning-Transwell, Dominique Dutscher, Bernolsheim, France). The cells were seeded at a density of 50,000 cells per individual filter and cultured in a growth medium containing 10% fetal calf serum. After an initial spreading step, the bEnd.3 cells colonized the entire surface available on the filter, thus reconstituting a functional endothelium. At this stage, the cells established tight junctions preventing the passage of molecules and ions. In order to improve the differentiation of bEnd.3 cells, we also set up two coculture systems: [bEnd.3 + astrocytes (CTX cells)] and [bEnd.3 + glioma (C6 cells)]. In these cases, the glial cells were seeded in the basal compartment (non-contact model) and co-cultured for 6 days before using bEnd.3 cell monolayers for transport experiments. The impermeability of each of these cellular barriers was assessed by transendothelial resistance measurements with a Voltmeter-Ohmmeter Millicell-ERS (Merck-Millipore, Burlington, MA, USA). […] All experiments were performed 6 times.

[6] = rat, in vivo
From the text: (§3) Male and female Sprague Dawley rats, 6 weeks old at receipt, weighing around 300 g at the beginning of the experiments were used for pharmacokinetics studies. The animals that were included in these experiments were naïve to the previous administration of drugs. The acclimatization of rats lasted at least 5 days. Animals had free access to food (RM1, SDS Dietex) and drinking water ad libitum. […] The protocol used by Syncrosome was approved by an Animal Ethical Committee (French National Committee N°71) and by the Higher Education and Research Ministry (#2015070314429284_v2). […] Every effort was done to minimize animal suffering and to reduce the number of animals used in the experiments in compliance with the ARRIVE guidelines.
(§4) One compound formulation at one dose for each route of administration was tested during the present study. The data were treated with the PKsolver add-in of Excel [125].
(§5) Anesthetized (ketamine/medetomidine or isoflurane 4% for induction and then 2.5%) rats were treated intravenously once. The final volume of administration was 0.5 mL/kg (100 mg/kg body weight). As soon as the administration was performed (t0), a timer was started.
(§6) A catheter was introduced into each nostril of the rat with a depth of 7 mm [126]. Anesthetized (ketamine/medetomidine or isoflurane 4% for induction and then 2.5%) rats were treated once. The volume of administration was 10 μL/nostril (20 μL per rat, 12 mg/kg body weight). As soon as the administration was performed (t0), a timer was started.
(§7) Blood samples of 2 mL were collected through direct intracardiac puncture and separated on two K3-EDTA Greiner Bio-One tubes of 1 mL (ref. 454034A, Dominique Dutscher, Bernolsheim, France). A 100× solution of protease inhibitors (ref. 1862209, ThermoScientific, Waltham, MA, USA) was added immediately after sampling (10 μL/tube). The first tube of the blood sample was then separated in 2 samples with different procedures (with and without sonication) and the other one was used for plasma preparation.
(§8) Brains were collected immediately after blood collection, split in 2 hemispheres, and then transferred into Eppendorf tubes. Brain samples were placed into crushed dry ice for several minutes and frozen at −80 °C. When indicated, the rats were transcardially perfused with a solution of phosphate-buffered saline (PBS) for 10 min with a flow rate of 40 mL/min to remove blood in the brain tissue. A subcutaneous administration of buprenorphine (0.03 mg/kg) was performed at least 30 min prior to transcardial perfusion.
(§9) For blood and serum stability and for pharmacokinetics studies, blood and plasma samples (200 µL) were incubated with 3 volumes of methanol for 30 min at 4 °C and then centrifuged at 4 °C for 5 min (16,000× g). Supernatants were stored at −20 °C before analysis. Brain homogenates were prepared at 4 °C in PBS containing 1 mM EDTA and protease inhibitors (ref. 1862209, ThermoScientific, Waltham, MA, USA) in a glass Potter homogenizer. Homogenate samples (600 µL) were incubated with 3 volumes of methanol for 30 min at 4 °C and centrifuged at 4 °C for 5 min (16,000× g). Supernatants were evaporated under nitrogen flux and then diluted in 100 µL of 0.1% formic acid in water.
(§10) The concentrations of intact AmyP53 in biological samples were determined by liquid chromatography–mass spectrometry (Acquity iClass-Vion LC-MS; Waters, Guyancourt, France).

[7] = in vivo; conditions: both, Sprague Dawley, rat, 12 mg/kg
From the text: as §3, §4, §5, §6, §7, §8, §9, §10

[8] = physchem
[9] = cited from earlier work
[10] = Toxicology study, repeated intranasal administration over 7 days; conditions: for Behavior (Days 1–7) / Brain Histology / Inflammation at Nostrils / Body Weight (Day 7): rat; for Body Weight (Day 7): mean ± SEM, in g (unit assumed)
Procedure: Male and female Wistar rats (4 animals per group) were treated with the indicated dose of AmyP53, and toxicology studies were conducted as previously described [75]. Statistical analysis was performed with the Kruskal–Wallis test.

[11] = Pharmacokinetics in rat blood and brain after intranasal or intravenous administration
From the text: as §3, §4, §5, §6, §7, §8, §9, §10

TGF-β: therapeutic peptide delivered to the brain via the intranasal route, 112 aa
pHi [1]: 8.6

VIP: therapeutic peptide delivered to the brain via the intranasal route, 28 aa [reference compound]
pHi [1]: 9.8

KEGVLYVGHHTK [AmyP53]
Chemical stability in water solution [2]: remains chemically intact over 18 months; also recorded: remained remarkably stable under all these conditions | half-life at 300 µM ([3]; rat fresh whole blood, read-out: Half-life time): 17 min | Detection after incubation ([3]; rat whole blood, 300 µM, 60 min): still detected after 60 min | half-life at 300 µM ([4]; commercial human serum, read-out: Half-life time): 5 min | Detection after incubation ([4]; human serum, 300 µM, 30 min): no longer detected in serum after 30 min | Transendothelial transport through the blood–brain barrier [5]: almost as effective as synB3 and more than synB5; also recorded: at least as efficiently as syn B3 and even more than syn B5 | Transendothelial resistance during incubation ([5]; reconstituted blood–brain barrier, incubation with AmyP53): remained unchanged | Tmax ([6]; both, Sprague Dawley, 12 mg/kg): 5 min | AmyP53 reaching the brain [6]: 1.57% | Efficiency of nose-to-brain delivery versus blood circulation [6]: 7.85 fold | Tmax [7]: 10 min | solubility [8]: > 146000 µM and > 200000 µg/mL | Inflammatory reaction in the nostrils and the tails ([9]; AmyP53-treated rats): no inflammatory reaction could be observed | Tolerance ([9]; rats, administered intravenously or intranasally): perfect tolerance | Undesirable effects ([9]; rats, intranasal administration, doses up to 5 mg/kg body weight): no undesirable effect could be detected | Undesirable effects ([9]; rats, intravenous administration, doses up to 80 mg/kg): no undesirable effect could be detected | Toxicology findings after repeated intranasal injections ([10]; male and female Wistar rats, doses up to 5 mg/kg body weight, 7-day period): no mortality, no behavioral changes, no body weight loss, and no alterations of brain tissue at autopsy | Behavior (Days 1–7) ([10]; female, intranasal 0.2 mg/kg): NTR NTR | Brain Histology ([10]; female, intranasal 0.2 mg/kg): NTR NTR | Inflammation at Nostrils ([10]; female, intranasal 0.2 mg/kg every two days during 7 days): No No | Body Weight (Day 7) ([10]; female, intranasal 0.2 mg/kg): 189.46 ± 15.15 | Behavior (Days 1–7) ([10]; female, intranasal 1.0 mg/kg): NTR NTR | Brain Histology ([10]; female, intranasal 1.0 mg/kg): NTR NTR | Inflammation at Nostrils ([10]; female, intranasal 1.0 mg/kg every two days during 7 days): No No | Body Weight (Day 7) ([10]; female, intranasal 1.0 mg/kg): 191.03 ± 3.13 | Behavior (Days 1–7) ([10]; female, intranasal 5.0 mg/kg): NTR NTR | Brain Histology ([10]; female, intranasal 5.0 mg/kg): NTR NTR | Inflammation at Nostrils ([10]; female, intranasal 5.0 mg/kg every two days during 7 days): No No | Body Weight (Day 7) ([10]; female, intranasal 5.0 mg/kg): 185.70 ± 5.77 | Behavior (Days 1–7) ([10]; male, intranasal 0.2 mg/kg): NTR NTR | Brain Histology ([10]; male, intranasal 0.2 mg/kg): NTR NTR | Inflammation at Nostrils ([10]; male, intranasal 0.2 mg/kg every two days during 7 days): No No | Body Weight (Day 7) ([10]; male, intranasal 0.2 mg/kg): 248.94 ± 8.51 | Behavior (Days 1–7) ([10]; male, intranasal 1.0 mg/kg): NTR NTR | Brain Histology ([10]; male, intranasal 1.0 mg/kg): NTR NTR | Inflammation at Nostrils ([10]; male, intranasal 1.0 mg/kg every two days during 7 days): No No | Body Weight (Day 7) ([10]; male, intranasal 1.0 mg/kg): 252.26 ± 5.77 | Behavior (Days 1–7) ([10]; male, intranasal 5.0 mg/kg): NTR NTR | Brain Histology ([10]; male, intranasal 5.0 mg/kg): NTR NTR | Inflammation at Nostrils ([10]; male, intranasal 5.0 mg/kg every two days during 7 days): No No | Body Weight (Day 7) ([10]; male, intranasal 5.0 mg/kg): 250.90 ± 5.68 | Ratio of AUCIN/AUCiv ([11]; blood): 123% | Ratio of AUCIN/AUCiv ([11]; brain): 94%

Vasopressin [reference compound]
pHi [1]: 8.0

EPO: therapeutic peptide delivered to the brain via the intranasal route, 165 aa
pHi [1]: 8.7

NGF: therapeutic peptide delivered to the brain via the intranasal route, 120 aa
pHi [1]: 9.0

RGGRLAYLRRRWAVLGR [synB5, reference compound]
Transendothelial transport through the blood–brain barrier [5]: efficiently crossed the blood–brain barrier

RRLSYSRRRF [synB3, reference compound]
Transendothelial transport through the blood–brain barrier [5]: efficiently crossed the blood–brain barrier

— paper PMC9654333, “AmyP53, a Therapeutic Peptide Candidate for the Treatment of Alzheimer’s and Parkinson’s Disease: Safety, Stability, Pharmacokinetics Parameters and Nose-to Brain Delivery” (International Journal of Molecular Sciences, 2022)
